From article PMC11367503, “Exploring galectin interactions with human milk oligosaccharides and blood group antigens identifies BGA6 as a functional galectin-4 ligand” (The Journal of Biological Chemistry, 2024)
Where “and” joins values, the source holds several entries; their conditions need not be identical. Identical values can stand only once.

Tests used:
Format in all cases: binding
human Gal-4 [1] = target: T1, human Gal-4 (Homo sapiens, UniProt P56470); experiment: Competitive solid-phase assay (SPA), immobilized asialofetuin, Gal-4; conditions: mean ± S.D., three independent experiments
T1 construct: His6-SUMO (N, cleaved yes); made in house; host or cells: Escherichia coli BL21 (DE3)
T1 sequence (P56470 1-323): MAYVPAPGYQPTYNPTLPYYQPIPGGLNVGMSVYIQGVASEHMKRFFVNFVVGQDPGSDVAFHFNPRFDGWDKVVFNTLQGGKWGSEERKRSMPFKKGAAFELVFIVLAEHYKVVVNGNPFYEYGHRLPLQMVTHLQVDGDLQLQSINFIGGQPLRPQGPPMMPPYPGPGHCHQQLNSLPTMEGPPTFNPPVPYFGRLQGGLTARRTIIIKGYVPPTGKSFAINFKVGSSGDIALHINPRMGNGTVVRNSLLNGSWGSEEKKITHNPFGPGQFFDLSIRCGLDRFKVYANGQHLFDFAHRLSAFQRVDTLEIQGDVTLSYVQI
Protocol: (§1) The assay was adapted from Rapoport et al. (2010) ([88]). Briefly, 96-well plates (flat-bottom) were coated with 10 μg/ml asialofetuin (ASF, Sigma-Aldrich) in sodium carbonate buffer (pH 9.6) and incubated overnight at 4 °C. Then, wells were washed three times with 100 μl/well PBS-Tween 0.05% (w/v) and blocked with 100 μl/well PBS-bovine serum albumin (BSA) 2% (1 h, room temperature (RT)) in a humid chamber. Meanwhile, equal volumes of human recombinant Gal-1, -3, -4, -7, and -12 (20–40 μg/ml) in PBS-BSA 0.3% buffer were preincubated with the corresponding inhibitors in serial dilutions (2 h, 37 °C). After washing, galectins were detected using the corresponding antigalectin primary detection antibodies in PBS-BSA 0.3% w/v (1 h at RT). For Gal-1, wells were incubated with an in-house purified 100 ng/ml biotinylated rabbit anti–human Gal-1 polyclonal immunoglobulin G. For Gal-3, -4, and -7, a 1:500 dilution of the corresponding biotinylated anti-human galectin antibodies was used (BAF1154, BAF1227, and MAB13391, respectively, R&D Systems). For Gal-12, a rabbit anti-human Gal-12 polyclonal antibody (Santa Cruz Biotechnology, 1:700) was used. For Gal-1, -3, -4, and -7, plates were rinsed three times before adding 0.33 μg/ml horseradish peroxidase (HRP)-labeled streptavidin (Sigma-Aldrich) for 30 min. For Gal-12, an anti-rabbit secondary antibody conjugate coupled to HRP was incubated for 1 h at RT in PBS-BSA 0.3% w/v. After washing, 100 μl TMB solution (0.1 mg/ml tetramethylbenzidine and 0.06% H2O2 in citrate-phosphate buffer, pH 5.0) was added to plates. The reaction was stopped by adding a 2N H2SO4 solution. Absorbance was determined at 450 nm in a Multiskan MS microplate reader (Thermo Fisher Scientific).

human Gal-7 [2] = target: T2, human Gal-7 (Homo sapiens, UniProt P47929); experiment: Competitive solid-phase assay (SPA), immobilized asialofetuin, Gal-7; conditions: for IC50: competitive SPA, immobilized asialofetuin, mean ± S.D., three independent experiments; for affinity of Gal-7 weaker than that shown by Gal-1: SPA, Gal-7 versus Gal-1
T2 construct: made in house; host or cells: Escherichia coli BL21 (DE3)
Protocol: as §1

human Gal-12 = target: T3, human Gal-12 (Homo sapiens, UniProt Q96DT0); experiment: Competitive solid-phase assay (SPA), immobilized asialofetuin, Gal-12; conditions: mean ± S.D., three independent experiments
T3 construct: To obtain full-length human Gal-12, we adapted our previously optimized procedure for murine Gal-12; made in house; host or cells: Escherichia coli Rosetta 2 (DE3)
T3 sequence (Q96DT0 1-336): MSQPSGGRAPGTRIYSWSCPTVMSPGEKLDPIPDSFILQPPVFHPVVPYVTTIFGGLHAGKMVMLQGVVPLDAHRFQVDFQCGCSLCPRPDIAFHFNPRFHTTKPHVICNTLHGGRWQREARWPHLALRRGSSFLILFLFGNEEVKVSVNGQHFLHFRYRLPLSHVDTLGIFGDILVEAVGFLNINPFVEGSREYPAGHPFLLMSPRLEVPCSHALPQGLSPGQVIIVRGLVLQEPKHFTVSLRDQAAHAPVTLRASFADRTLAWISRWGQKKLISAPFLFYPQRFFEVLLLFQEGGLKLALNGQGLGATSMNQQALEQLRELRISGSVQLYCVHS
Protocol: as §1

human Gal-3 [3] = target: T4, human Gal-3 (Homo sapiens, UniProt P17931); experiment: Competitive solid-phase assay (SPA), immobilized asialofetuin, Gal-3; conditions: mean ± S.D., three independent experiments
T4 construct: made in house; host or cells: Escherichia coli BL21 (DE3)
Protocol: as §1

human Gal-4 [4] = target: T1, human Gal-4; experiment: Isothermal titration calorimetry (ITC), Gal-4; conditions: Gal-4, PBS, 298 K, n fixed to 1.00
Protocol: (§2) All ITC experiments were performed by using a NanoITC (TA Instruments) under previously optimized conditions ([89]). A typical titration involved 20 injections at 300 s intervals of 2.5 μl aliquots of a 2.5 to 10 mM ligand solution into the sample cell (volume 200 μl) containing the different galectins (30–100 μM). The solutions were prepared by dissolving the glycan ligands in degassed PBS buffer at 298 K. The titration cell was continuously stirred at 300 rev/min. The heats of dilution of the ligands in the buffer were subtracted from the titration data. […] Fitting was performed using the Nano Analyze software (TA Instruments; https://www.tainstruments.com/itcrun-dscrun-nanoanalyze-software/) to determine association constants (Ka) and the enthalpy change (ΔH). No reliable fit of the thermodynamic parameters could be obtained for binding affinities above 80 μM.

human Gal-1 [5] = target: T5, human Gal-1 (Homo sapiens, UniProt P09382); experiment: Competitive solid-phase assay (SPA), immobilized asialofetuin, Gal-1; conditions: mean ± S.D., three independent experiments
T5 construct: made in house; host or cells: Escherichia coli BL21 (DE3)
Protocol: as §1

human Gal-7 [6] = target: T2, human Gal-7; experiment: Isothermal titration calorimetry (ITC), Gal-7; conditions: Gal-7, PBS, 298 K, n fixed to 1.00
Protocol: as §2

human Gal-3 [7] = target: T4, human Gal-3; experiment: Isothermal titration calorimetry (ITC), Gal-3; conditions: Gal-3, PBS, 298 K; for Kd: n fixed to 1.00
Protocol: as §2

human Gal-1 [8] = target: T5, human Gal-1; experiment: Isothermal titration calorimetry (ITC), Gal-1; conditions: Gal-1, PBS, 298 K; for Kd: n fixed to 1.00
Protocol: as §2

T5 sequence (P09382 whole entry): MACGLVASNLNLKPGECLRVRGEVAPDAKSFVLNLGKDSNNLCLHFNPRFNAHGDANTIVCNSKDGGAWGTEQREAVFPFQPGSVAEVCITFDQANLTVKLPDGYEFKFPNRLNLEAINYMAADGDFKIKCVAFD
T4 sequence (P17931 whole entry): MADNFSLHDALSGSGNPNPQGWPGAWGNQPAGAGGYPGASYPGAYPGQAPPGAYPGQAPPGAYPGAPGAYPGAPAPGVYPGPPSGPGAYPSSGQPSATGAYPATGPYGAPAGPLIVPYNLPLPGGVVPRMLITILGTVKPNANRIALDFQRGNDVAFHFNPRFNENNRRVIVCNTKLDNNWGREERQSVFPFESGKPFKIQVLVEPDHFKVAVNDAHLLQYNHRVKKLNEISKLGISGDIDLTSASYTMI
T2 sequence (P47929 whole entry): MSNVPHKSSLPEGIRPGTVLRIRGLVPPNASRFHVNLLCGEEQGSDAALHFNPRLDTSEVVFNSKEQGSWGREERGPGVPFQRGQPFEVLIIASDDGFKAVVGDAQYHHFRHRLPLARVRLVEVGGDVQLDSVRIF

Compound	IC50 (human Gal-4 [1]) [mM]	IC50 (human Gal-7 [2]) [mM]	IC50 (human Gal-12) [mM]	IC50 (human Gal-3 [3])	Kd (human Gal-4 [4]) [mM]	IC50 (human Gal-1 [5])	Kd (human Gal-7 [6]) [mM]	affinity of Gal-7 weaker than that shown by Gal-1 (human Gal-7 [2])	-TΔS (human Gal-3 [7]) [kcal/mol]	ΔH (human Gal-3 [7]) [kcal/mol]	Kd (human Gal-3 [7]) [mM]	-TΔS (human Gal-1 [8]) [kcal/mol]	ΔH (human Gal-1 [8]) [kcal/mol]	Kd (human Gal-1 [8]) [mM]
OC[C@H]1O[C@@H](O[C@H]2[C@H](O)[C@@H](O)C(O)O[C@@H]2CO)[C@H](O)[C@@H](O)[C@H]1O (mixture of isomers) [Lac, lactose]	23.1	3 ± 0.6	82.1 ± 0.8	–	–	–	–	–	–	–	–	–	–	–
CC1OC(OC2C(OC3C(CO)OC(O)C(O)C3O)OC(CO)C(O)C2O)C(O)C(O)C1O (stereo not shown) [2’-FL, 2′-fucosyllactose]	1.5 ± 0.6	8.3 ± 0.5	63.5 ± 0.8	4.2 ± 0.3 mM	0.13 ± 0.009	1.2 mM and 1.23 mM	–	–	–	–	–	–	–	–
CC(=O)NC1C(O)CC(OC2C(O)C(CO)OC(OC3C(CO)OC(O)C(O)C3O)C2O)(C(=O)O)OC1C(O)C(O)CO (stereo not shown) [3’-SL, 3′-sialyllactose]	–	1.7 ± 0.2	11.1 ± 1	11 ± 0.9 mM	–	2.2 ± 0.03 mM	0.097 ± 0.009	–	–	–	–	–	–	–
CC(=O)NC1C(O)OC(CO)C(OC2OC(CO)C(O)C(OC3(C(=O)O)CC(O)C(NC(C)=O)C(C(O)C(O)CO)O3)C2O)C1O (stereo not shown) [3’-SLacNAc, 3’-sialyl-N-acetyllactosamine]	–	2.2	9.8 ± 1	4.8 ± 0.3 mM	–	2.2 ± 0.04 mM	–	–	–	–	–	–	–	–
CC(=O)NC1C(O)CC(OCC2OC(OC3C(CO)OC(O)C(O)C3O)C(O)C(O)C2O)(C(=O)O)OC1C(O)C(O)CO (stereo not shown) [6’-SL, 6′-sialyllactose]	–	9.5 ± 0.3	53.3 ± 2	–	–	–	–	–	–	–	–	–	–	–
CC(=O)NC1C(OC2C(O)C(CO)OC(OC3C(O)C(CO)OC(O)C3NC(C)=O)C2OC2OC(C)C(O)C(O)C2O)OC(CO)C(O)C1O (stereo not shown) [BGA1, blood group A antigen 1]	0.2 ± 0.1	2.5 ± 0.8	30.3 ± 9	1.2 ± 0.5 mM	–	6.2 mM and 6.19 mM	–	–	–	–	–	–	–	–
CC(=O)NC1C(OC2C(O)C(CO)OC(OC3C(CO)OC(O)C(O)C3OC3OC(C)C(O)C(O)C3O)C2O)OC(CO)C(OC2OC(CO)C(O)C(O)C2O)C1OC1OC(C)C(O)C(O)C1O (stereo not shown) [DFH, 3,3-difucosylhexaose (Lewis X hexaose)]	13.8 ± 3	9.2 ± 0.2	5.6 ± 0.8	10.5 ± 0.7 mM	–	9.7 mM and 9.73 mM	–	–	–	–	–	–	–	–
CC1OC(OC2C(OC3C(CO)OC(O)C(O)C3OC3OC(C)C(O)C(O)C3O)OC(CO)C(O)C2O)C(O)C(O)C1O (stereo not shown) [DFL, 2′,3-difucosyllactose]	14.5 ± 0.7	18.4 ± 0.3	4.5 ± 0.6	9.1 ± 0.9 mM	–	11.9 mM	–	–	–	–	–	–	–	–
CC(=O)NC1C(OC2C(O)C(CO)OC(OC3C(CO)OC(O)C(O)C3OC3OC(C)C(O)C(O)C3O)C2O)OC(CO)C(OC2OC(C)C(O)C(O)C2O)C1OC1OC(CO)C(O)C(O)C1O (stereo not shown) [LAH, Lewis A antigen hexaose]	30.4 ± 2	22.2 ± 0.8	51.1 ± 5	9.3 ± 0.6 mM	–	–	–	–	–	–	–	–	–	–
CC(=O)NC1C(OC2C(O)C(CO)OC(OC3C(CO)OC(O)C(O)C3OC3OC(C)C(O)C(O)C3O)C2O)OC(CO)C(O)C1OC1OC(CO)C(O)C(O)C1O (stereo not shown) [LNFP V, lacto-N-fucopentaose V]	25.1 ± 0.5	7.2 ± 0.3	8.9 ± 1	2.7 ± 0.5 mM	–	2.6 mM and 2.61 mM	–	–	–	–	–	–	–	–
CC(=O)NC1C(OC2C(O)C(CO)OC(OC3C(CO)OC(O)C(O)C3O)C2O)OC(CO)C(O)C1OC1OC(CO)C(O)C(O)C1O (stereo not shown) [LNT, lacto-N-tetraose]	15.1 ± 0.2	2	30.1 ± 5	~1.8 mM and 1.8 mM	–	1.6 ± 0.1 mM	0.106 ± 0.008	–	–	–	–	–	–	–
CC(=O)NC1C(OC2C(O)C(CO)OC(OC3C(CO)OC(OC4C(O)C(CO)OC(OC5C(CO)OC(OC6C(O)C(CO)OC(OC7C(CO)OC(O)C(O)C7O)C6O)C(NC(C)=O)C5O)C4O)C(NC(C)=O)C3O)C2O)OC(CO)C(OC2OC(CO)C(O)C(O)C2O)C1O (stereo not shown) [LNnO, lacto-N-neooctaose]	21.5	2.1 ± 0.8	28.1 ± 5	0.5 ± 0.9 mM	–	0.6 ± 0.1 mM	–	ca. 5 fold	-5.02 ± 0.48	-1.1 ± 0.096	0.04 ± 0.003	-2.61 ± 0	-3.04 ± 0.48	0.073 ± 0.007
CC(=O)NC1C(OC2C(O)C(CO)OC(OC3C(CO)OC(O)C(O)C3O)C2O)OC(CO)C(OC2OC(CO)C(O)C(O)C2O)C1O (stereo not shown) [LNnT, lacto-N-neotetraose]	25.2	3.3	29.3 ± 6	~1.8 mM and 1.8 mM	–	0.5 ± 0.1 mM	–	ca. 5 fold	–	–	0.095 ± 0.009	-3.51 ± 0.19	-2.15 ± 0.22	0.072 ± 0.008
CC(=O)NC1C(O)CC(OC2C(O)C(CO)OC(OC3C(O)C(CO)OC(OC4C(O)C(CO)OC(OC5C(CO)OC(O)C(O)C5O)C4O)C3NC(C)=O)C2O)(C(=O)O)OC1C(O)C(O)CO (stereo not shown) [LSTa, sialyl-lacto-N-tetraose a]	–	4.3 ± 0.9	9.2 ± 1	7.8 ± 0.8 mM	–	1.8 ± 0.1 mM	–	–	–	–	–	–	–	–
